The source of these data is patent US9556201B2, “Bicyclic pyridines and analogs as sirtuin modulators” (GLAXOSMITHKLINE LLC, priority 2009, dated 2017).

One test relates to TNF. Put plainly: TNF IC50 (column of Table 1; method not in the text shown). Format: cell-based.
The next test deals with T1, SIRT1 (Homo sapiens, UniProt Q96EB6).
T1 sequence (Q96EB6 1-747): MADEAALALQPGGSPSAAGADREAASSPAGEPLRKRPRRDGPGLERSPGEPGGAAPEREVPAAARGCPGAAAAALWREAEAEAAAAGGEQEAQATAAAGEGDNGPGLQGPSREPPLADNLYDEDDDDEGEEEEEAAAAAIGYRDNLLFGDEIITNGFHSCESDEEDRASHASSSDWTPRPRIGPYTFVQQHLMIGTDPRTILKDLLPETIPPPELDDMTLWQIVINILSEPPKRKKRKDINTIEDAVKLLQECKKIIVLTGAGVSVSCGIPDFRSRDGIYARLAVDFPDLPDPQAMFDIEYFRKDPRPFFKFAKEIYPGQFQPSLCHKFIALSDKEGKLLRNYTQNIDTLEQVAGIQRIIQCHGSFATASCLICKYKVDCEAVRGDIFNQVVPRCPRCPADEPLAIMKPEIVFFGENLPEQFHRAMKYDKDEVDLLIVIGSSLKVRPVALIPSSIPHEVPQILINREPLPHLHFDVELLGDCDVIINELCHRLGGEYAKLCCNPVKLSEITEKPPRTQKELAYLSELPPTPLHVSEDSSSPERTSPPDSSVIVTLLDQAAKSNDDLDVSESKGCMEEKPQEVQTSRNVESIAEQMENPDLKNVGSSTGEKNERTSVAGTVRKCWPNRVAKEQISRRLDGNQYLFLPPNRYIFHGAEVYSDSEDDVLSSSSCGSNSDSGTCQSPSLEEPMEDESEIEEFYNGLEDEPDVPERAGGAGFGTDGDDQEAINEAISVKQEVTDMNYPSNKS
The test is described as follows: Mass spectrometry based assay to identify modulators of SIRT1 activity (deacetylation of p53-based acetylated peptide substrate). The format is biochemical. The note with it: for Emax: 25 min, SIRT1 activation, read-out: % FOLD ACT. (percent maximum fold activation). A digest of the protocol: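 His-tagged human SIRT1 (10 nM, E. coli) incubated 25 min at 25 °C with […] p53-derived acetylated 5TMR peptide and 120 μM βNAD+ in pH 8 Tris-acetate buffer, then formic acid-stopped. Mass spectrometry quantifies acetylated vs deacetylated peptide; nicotinamide and DMSO controls.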

One may read the IC50 as the concentration that inhibits the measured activity by half. The low end stands for greater potency, the high end for weaker potency. `CCN1CCCN(C(=O)Nc2ccnc(C)c2)c2nc(-c3cccc(Cl)c3)ccc21` [Compound 795] yielded an IC50 in the test with TNF of under 20 µM. In addition, at SIRT1, the EC1.5 (concentration giving 1.5-fold activation) is under 1000 nM and the Emax was over 200%.

For `O=C(Nc1ccc2nccnc2c1)N1CCCOc2ccc(-c3cccc(Cl)c3)nc21` [Compound 881], in the test on TNF, the half-maximal inhibitory concentration (IC50) was at least 20 µM. For the same compound, on SIRT1, the EC1.5 (concentration giving 1.5-fold activation) was under 1000 nM and the Emax is over 200%.

Consider `O=C(Nc1cncc(OCC(O)CO)n1)N1CCC(F)(F)c2ccc(-c3cccc(C(F)(F)F)c3)nc21` (stereo not drawn) [Compound 813], for which the half-inhibitory concentration (IC50) with TNF was under 20 µM. Further, at SIRT1, the EC1.5 (concentration giving 1.5-fold activation) was under 1000 nM and the Emax was over 200%.

Turning to `Cc1csc(NC(=O)N2CCC(C)(C)c3ccc(-c4cccc(C(F)(F)F)c4)nc32)n1` [Compound 839], in the test on TNF, the 50% inhibitory concentration (IC50) is under 20 µM. On SIRT1, the EC1.5 (concentration giving 1.5-fold activation) was under 1000 nM and the Emax was over 200%.

Take `O=C(Nc1ccnc(OC[C@H](O)CO)n1)N1CCC(F)(F)c2ccc(-c3cccc(C(F)(F)F)c3)nc21` [Compound 825]: in the test with TNF, the IC50 was under 20 µM. At SIRT1, the EC1.5 (concentration giving 1.5-fold activation) was under 1000 nM and the Emax is over 200%.

Turning to `CC1(C)CCN(C(=O)Nc2cncc(OCC(O)CO)n2)c2nc(-c3cccc(C(F)(F)F)c3)ccc21` (stereo not drawn) [Compound 848], the IC50 with TNF was under 20 µM. Further, on SIRT1, the EC1.5 (concentration giving 1.5-fold activation) is under 1000 nM and the Emax was over 200%.

For `O=C(Nc1ccncc1)N1CCc2ccc(-c3cccc(C(F)(F)F)c3)nc21` [Compound 849], the half-maximal inhibitory concentration (IC50) in the test on TNF is under 20 µM. Also, on SIRT1, the EC1.5 (concentration giving 1.5-fold activation) was under 1000 nM and the Emax was over 200%.

`CN(C)c1cccc(-c2ccc3c(n2)N(C(=O)Nc2cccc(OC[C@H](O)CO)n2)CCC3)c1` [Compound 699] yielded a half-inhibitory concentration (IC50) in the test on TNF of under 20 µM. Also, at SIRT1, the EC1.5 (concentration giving 1.5-fold activation) was under 1000 nM and the Emax is over 200%.

`COc1cc(NC(=O)N2CCCOc3ccc(-c4cccc(Cl)c4)nc32)nc(OC)n1` [Compound 873]: the IC50 in the test on TNF is at least 20 µM. Moreover, at SIRT1, the EC1.5 (concentration giving 1.5-fold activation) is under 1000 nM and the Emax was over 200%.

For the compound `O=C(Nc1cc(OCC(O)CO)ccn1)N1CCC(F)(F)c2ccc(-c3cccc(C(F)(F)F)c3)nc21` (stereo not drawn) [Compound 860], the half-maximal inhibitory concentration (IC50) with TNF was under 20 µM. At SIRT1, the EC1.5 (concentration giving 1.5-fold activation) was under 1000 nM and the Emax was over 200%.

As for `O=C(Nc1ccnc(OCC(O)CO)n1)N1CCOc2ccc(-c3cccc(C(F)(F)F)c3)nc21` (stereo not drawn) [Compound 697], in the test on TNF, the IC50 was at least 20 µM. For the same compound, on SIRT1, the EC1.5 (concentration giving 1.5-fold activation) was under 1000 nM and the Emax is over 200%.

In turn, `CCN1CCCN(C(=O)Nc2nc(C)cs2)c2nc(-c3cccc(Cl)c3)ccc21` [Compound 794] showed an IC50 in the test on TNF of under 20 µM. In addition, on SIRT1, the EC1.5 (concentration giving 1.5-fold activation) was under 1000 nM and the Emax is over 200%.

`O=C(Nc1cccc(N2CC3(CCO3)C2)n1)N1CCc2ccc(-c3cccc(C(F)(F)F)c3)nc21` [Compound 869]: the 50% inhibitory concentration (IC50) in the test with TNF was under 20 µM. Further, at SIRT1, the EC1.5 (concentration giving 1.5-fold activation) was under 1000 nM and the Emax is over 200%.

Regarding `O=C(Nc1cccc(N2CC3(COC3)C2)n1)N1CCc2ccc(-c3cccc(C(F)(F)F)c3)nc21` [Compound 877], in the test with TNF, the half-maximal inhibitory concentration (IC50) is under 20 µM. On SIRT1, the EC1.5 (concentration giving 1.5-fold activation) was under 1000 nM and the Emax is over 200%.

As to `O=C(Nc1cccnc1)N1CCOc2ccc(-c3cccc(C(F)(F)F)c3)nc21` [Compound 887], in the test with TNF, the IC50 was at least 20 µM. On SIRT1, the EC1.5 (concentration giving 1.5-fold activation) is under 1000 nM and the Emax was over 200%.

The compound `Cc1cc(NC(=O)N2CCCC(=O)c3ccc(-c4cccc(Cl)c4)nc32)ccn1` [Compound 750] showed a 50% inhibitory concentration (IC50) in the test with TNF of at least 20 µM. Further, at SIRT1, the EC1.5 (concentration giving 1.5-fold activation) was under 1000 nM and the Emax was over 200%.

As to `Cc1csc(NC(=O)N2CCc3ccc(-c4cccc(C(F)(F)F)c4)nc32)n1` [Compound 851], in the test on TNF, the IC50 was at least 20 µM. On SIRT1, the EC1.5 (concentration giving 1.5-fold activation) was under 1000 nM and the Emax is over 200%.

Compound `Cc1cncc(NC(=O)N2CCOc3cnc(-c4cccc(C(F)(F)F)c4)nc32)c1` [Compound 710] returned a half-maximal inhibitory concentration (IC50) in the test with TNF of at least 20 µM. For the same compound, on SIRT1, the EC1.5 (concentration giving 1.5-fold activation) was under 1000 nM and the Emax was over 200%.

Regarding `CCN1CCCN(C(=O)Nc2cc(C)nc(C)c2)c2nc(-c3cccc(Cl)c3)ccc21` [Compound 793], the 50% inhibitory concentration (IC50) in the test on TNF was under 20 µM. Further, at SIRT1, the EC1.5 (concentration giving 1.5-fold activation) was under 1000 nM and the Emax is over 200%.

Turning to `O=C(Nc1cccc(OCC(O)CO)n1)N1CCOc2cnc(-c3cccc(C(F)(F)F)c3)nc21` (stereo not drawn) [Compound 717], in the test with TNF, the IC50 was at least 20 µM. Besides, on SIRT1, the EC1.5 (concentration giving 1.5-fold activation) was under 1000 nM and the Emax is at most 200%.

In the case of `O=C(Nc1cccc(N2CC3(CCO3)C2)n1)N1CCOc2ccc(-c3cccc(C(F)(F)F)c3)nc21` [Compound 823, N-(6-(1-oxa-6-azaspiro[3.3]heptan-6-yl)pyridin-2-yl)-6-(3-(trifluoromethyl)phenyl)-2H-pyrido[3,2-b][1,4]oxazine-4(3H)-carboxamide], the concentration for half-maximal inhibition (IC50) in the test with TNF was at least 20 µM. In addition, at SIRT1, the EC1.5 (concentration giving 1.5-fold activation) is under 1000 nM and the Emax is over 200%.

`CC1CCN(C(=O)Nc2ccncc2F)c2nc(-c3cccc(C(F)(F)F)c3)ccc21` (stereo not drawn) [Compound 804] registered a half-maximal inhibitory concentration (IC50) with TNF of under 20 µM. On SIRT1, the EC1.5 (concentration giving 1.5-fold activation) was under 1000 nM and the Emax was over 200%.

Regarding `O=C(Nc1ccncn1)N1CCc2ccc(-c3cccc(C(F)(F)F)c3)nc21` [Compound 850], the concentration for half-maximal inhibition (IC50) in the test on TNF is at least 20 µM. For the same compound, on SIRT1, the EC1.5 (concentration giving 1.5-fold activation) was under 1000 nM and the Emax is over 200%.

The compound `Cn1cc2ccc(NC(=O)N3CCCOc4ccc(-c5cccc(Cl)c5)nc43)cc2n1` [Compound 883] came in with an IC50 with TNF of under 20 µM. Besides, at SIRT1, the EC1.5 (concentration giving 1.5-fold activation) is under 1000 nM and the Emax is over 200%.

As for `COc1nccc(NC(=O)N2CCCC(=O)c3ccc(-c4cccc(C(F)(F)F)c4)nc32)n1` [Compound 830], the IC50 in the test on TNF was at least 20 µM. At SIRT1, the EC1.5 (concentration giving 1.5-fold activation) is under 1000 nM and the Emax is over 200%.

`O=C(Nc1ccnc(OCC(O)CO)n1)N1CCCOc2ccc(-c3cccc(Cl)c3)nc21` (stereo not drawn) [Compound 876] yielded an IC50 with TNF of under 20 µM. Also, on SIRT1, the EC1.5 (concentration giving 1.5-fold activation) was under 1000 nM and the Emax is over 200%.

As for `CC1CCN(C(=O)Nc2cccc(OC[C@@H](O)CO)n2)c2nc(-c3cccc(C(F)(F)F)c3)ccc21` (stereo partly drawn) [Compound 801], the IC50 with TNF was under 20 µM. For the same compound, at SIRT1, the EC1.5 (concentration giving 1.5-fold activation) was under 1000 nM and the Emax was over 200%.

As to `CC1CCN(C(=O)Nc2ccc(F)cn2)c2nc(-c3cccc(C(F)(F)F)c3)ccc21` (stereo not drawn) [Compound 800], the 50% inhibitory concentration (IC50) in the test with TNF is under 20 µM. Moreover, at SIRT1, the EC1.5 (concentration giving 1.5-fold activation) was under 1000 nM and the Emax is at most 200%.

The compound `O=C(Nc1cncc(OCC(O)CO)n1)N1CCc2ccc(-c3cccc(C(F)(F)F)c3)nc21` (stereo not drawn) [Compound 868] displayed an IC50 with TNF of under 20 µM. Further, on SIRT1, the EC1.5 (concentration giving 1.5-fold activation) is under 1000 nM and the Emax is over 200%.

For `COc1cc(NC(=O)N2CCCOc3ccc(-c4cccc(Cl)c4)nc32)ccn1` [Compound 882], the 50% inhibitory concentration (IC50) in the test with TNF was at least 20 µM. On SIRT1, the EC1.5 (concentration giving 1.5-fold activation) is under 1000 nM and the Emax was over 200%.
